How the values were obtained:
Assay in all cases: KINOMEscan
Type in all cases: binding
AAK1 = target: T1, AAK1 (Homo sapiens, UniProt Q2M2I8); conditions: AAK1, 1 uM
T1 construct: purchased Ambit KINOMEscan (DiscoverX)
Procedure, shortened: (§1)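 Test concentration 1 μM for all compounds. Values reflect interference with substrate binding, not catalytic turnover.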

AURKC = target: T2, AURKC (Homo sapiens, UniProt Q9UQB9); conditions: 1 uM
T2 construct: purchased Ambit KINOMEscan (DiscoverX)
Procedure, shortened: as §1

BTK = target: T3, BTK (Homo sapiens, UniProt Q06187); conditions: 1 uM
T3 construct: purchased Ambit KINOMEscan (DiscoverX)
T3 sequence (Q06187 whole entry): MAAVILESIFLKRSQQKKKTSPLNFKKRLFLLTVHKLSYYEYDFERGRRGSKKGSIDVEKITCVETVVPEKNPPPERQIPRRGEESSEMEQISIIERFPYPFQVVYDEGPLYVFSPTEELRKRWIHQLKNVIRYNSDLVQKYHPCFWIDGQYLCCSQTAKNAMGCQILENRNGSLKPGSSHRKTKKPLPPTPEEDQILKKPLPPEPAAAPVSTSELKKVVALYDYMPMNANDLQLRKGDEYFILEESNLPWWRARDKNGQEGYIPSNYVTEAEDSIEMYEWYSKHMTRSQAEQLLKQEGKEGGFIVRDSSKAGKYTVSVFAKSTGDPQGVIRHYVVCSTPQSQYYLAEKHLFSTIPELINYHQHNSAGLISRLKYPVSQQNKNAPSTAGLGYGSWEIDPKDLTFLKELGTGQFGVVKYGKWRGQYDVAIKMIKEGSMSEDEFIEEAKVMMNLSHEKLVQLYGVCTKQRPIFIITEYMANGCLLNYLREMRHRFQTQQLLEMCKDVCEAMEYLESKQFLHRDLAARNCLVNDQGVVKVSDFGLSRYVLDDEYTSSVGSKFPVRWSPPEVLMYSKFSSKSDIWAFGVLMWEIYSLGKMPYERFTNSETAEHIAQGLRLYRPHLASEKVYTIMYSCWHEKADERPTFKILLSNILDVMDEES
Procedure, shortened: as §1

CHEK2 = target: T4, CHEK2 (Homo sapiens, UniProt O96017); conditions: CHEK2, 1 uM
T4 construct: purchased Ambit KINOMEscan (DiscoverX)
Procedure, shortened: as §1

CSNK1G2 = target: T5, CSNK1G2 (Homo sapiens, UniProt P78368); conditions: CSNK1G2, 1 uM
T5 construct: purchased Ambit KINOMEscan (DiscoverX)
Procedure, shortened: as §1

CSNK2A2 = target: T6, CSNK2A2 (Homo sapiens, UniProt P19784); conditions: CSNK2A2, 1 uM
T6 construct: purchased Ambit KINOMEscan (DiscoverX)
T6 sequence (P19784 whole entry): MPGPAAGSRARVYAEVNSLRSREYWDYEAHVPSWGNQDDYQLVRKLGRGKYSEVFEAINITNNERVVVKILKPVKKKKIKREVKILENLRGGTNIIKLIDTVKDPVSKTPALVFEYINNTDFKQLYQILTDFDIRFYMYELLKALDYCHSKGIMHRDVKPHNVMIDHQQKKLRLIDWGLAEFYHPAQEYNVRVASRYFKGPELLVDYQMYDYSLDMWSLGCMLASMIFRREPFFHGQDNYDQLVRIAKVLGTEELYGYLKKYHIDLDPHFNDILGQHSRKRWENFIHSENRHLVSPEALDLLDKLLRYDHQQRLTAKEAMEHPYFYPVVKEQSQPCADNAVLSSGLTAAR
Procedure, shortened: as §1

EGFR(E746-A750del) = target: T7, EGFR(E746-A750del) (Homo sapiens, UniProt P00533, DEL746-750); conditions: 1 uM
T7 construct: purchased Ambit KINOMEscan (DiscoverX)
Procedure, shortened: as §1

ERBB3 = target: T8, ERBB3 (Homo sapiens, UniProt P21860); conditions: ERBB3, 1 uM
T8 construct: purchased Ambit KINOMEscan (DiscoverX)
Procedure, shortened: as §1

FGFR1 = target: T9, FGFR1 (Homo sapiens, UniProt P11362); conditions: FGFR1, 1 uM
T9 construct: purchased Ambit KINOMEscan (DiscoverX)
Procedure, shortened: as §1

IKK-beta = target: T10, IKK-beta (Homo sapiens, UniProt O14920); conditions: 1 uM
T10 construct: purchased Ambit KINOMEscan (DiscoverX)
T10 sequence (O14920 whole entry): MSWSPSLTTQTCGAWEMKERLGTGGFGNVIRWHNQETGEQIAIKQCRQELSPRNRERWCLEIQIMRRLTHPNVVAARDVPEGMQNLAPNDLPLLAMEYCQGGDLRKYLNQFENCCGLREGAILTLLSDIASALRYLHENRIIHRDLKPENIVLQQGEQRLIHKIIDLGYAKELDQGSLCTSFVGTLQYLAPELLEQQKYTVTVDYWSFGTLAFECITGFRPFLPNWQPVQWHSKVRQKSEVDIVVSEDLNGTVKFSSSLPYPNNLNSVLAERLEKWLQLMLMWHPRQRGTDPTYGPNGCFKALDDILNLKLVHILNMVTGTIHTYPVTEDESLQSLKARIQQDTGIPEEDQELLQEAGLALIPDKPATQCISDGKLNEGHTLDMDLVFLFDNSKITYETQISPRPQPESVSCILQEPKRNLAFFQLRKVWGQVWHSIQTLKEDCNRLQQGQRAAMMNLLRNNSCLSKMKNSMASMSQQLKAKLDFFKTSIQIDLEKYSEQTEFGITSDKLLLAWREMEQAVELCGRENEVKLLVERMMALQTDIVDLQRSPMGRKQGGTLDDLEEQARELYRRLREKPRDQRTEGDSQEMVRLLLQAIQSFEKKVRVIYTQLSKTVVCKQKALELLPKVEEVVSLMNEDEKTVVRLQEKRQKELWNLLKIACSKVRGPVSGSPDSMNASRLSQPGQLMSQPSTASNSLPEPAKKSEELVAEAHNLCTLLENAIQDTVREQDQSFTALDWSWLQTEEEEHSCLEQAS
Procedure, shortened: as §1

INSR = target: T11, INSR (Homo sapiens, UniProt P06213); conditions: 1 uM
T11 construct: purchased Ambit KINOMEscan (DiscoverX)
Procedure, shortened: as §1

JNK1 = target: T12, JNK1 (Homo sapiens, UniProt P45983); conditions: JNK1, 1 uM
T12 construct: purchased Ambit KINOMEscan (DiscoverX)
T12 sequence (P45983 whole entry): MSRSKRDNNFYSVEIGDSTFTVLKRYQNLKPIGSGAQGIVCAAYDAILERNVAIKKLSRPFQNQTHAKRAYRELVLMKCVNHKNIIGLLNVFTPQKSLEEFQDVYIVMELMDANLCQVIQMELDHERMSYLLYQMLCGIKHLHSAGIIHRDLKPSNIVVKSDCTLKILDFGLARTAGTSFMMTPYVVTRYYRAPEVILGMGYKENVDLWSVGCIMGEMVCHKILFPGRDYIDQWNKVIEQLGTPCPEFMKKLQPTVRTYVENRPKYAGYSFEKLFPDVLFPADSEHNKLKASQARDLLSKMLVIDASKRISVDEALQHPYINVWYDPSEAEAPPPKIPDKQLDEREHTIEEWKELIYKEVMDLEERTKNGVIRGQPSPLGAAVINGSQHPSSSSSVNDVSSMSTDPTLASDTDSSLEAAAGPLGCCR
Procedure, shortened: as §1

MAP3K3 = target: T13, MAP3K3 (Homo sapiens, UniProt Q99759); conditions: MAP3K3, 1 uM
T13 construct: purchased Ambit KINOMEscan (DiscoverX)
T13 sequence (Q99759 whole entry): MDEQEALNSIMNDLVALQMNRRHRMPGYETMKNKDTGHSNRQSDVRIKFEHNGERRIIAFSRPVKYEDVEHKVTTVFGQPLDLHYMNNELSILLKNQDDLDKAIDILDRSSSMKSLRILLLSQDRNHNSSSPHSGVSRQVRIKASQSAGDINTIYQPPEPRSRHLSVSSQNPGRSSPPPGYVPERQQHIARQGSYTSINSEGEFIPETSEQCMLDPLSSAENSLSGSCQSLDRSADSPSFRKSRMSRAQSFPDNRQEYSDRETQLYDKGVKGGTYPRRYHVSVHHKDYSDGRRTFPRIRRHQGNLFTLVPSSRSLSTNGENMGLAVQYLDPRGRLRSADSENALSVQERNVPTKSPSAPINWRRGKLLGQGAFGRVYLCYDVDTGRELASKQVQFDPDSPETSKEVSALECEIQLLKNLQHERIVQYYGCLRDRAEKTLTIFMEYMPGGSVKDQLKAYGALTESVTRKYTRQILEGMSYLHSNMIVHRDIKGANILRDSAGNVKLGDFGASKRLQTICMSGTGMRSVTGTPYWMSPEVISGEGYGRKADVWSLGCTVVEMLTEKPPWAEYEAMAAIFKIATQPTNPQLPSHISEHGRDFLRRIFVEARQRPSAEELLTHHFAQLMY
Procedure, shortened: as §1

MYO3A = target: T14, MYO3A (Homo sapiens, UniProt Q8NEV4); conditions: 1 uM
T14 construct: purchased Ambit KINOMEscan (DiscoverX)
T14 sequence (Q8NEV4 whole entry): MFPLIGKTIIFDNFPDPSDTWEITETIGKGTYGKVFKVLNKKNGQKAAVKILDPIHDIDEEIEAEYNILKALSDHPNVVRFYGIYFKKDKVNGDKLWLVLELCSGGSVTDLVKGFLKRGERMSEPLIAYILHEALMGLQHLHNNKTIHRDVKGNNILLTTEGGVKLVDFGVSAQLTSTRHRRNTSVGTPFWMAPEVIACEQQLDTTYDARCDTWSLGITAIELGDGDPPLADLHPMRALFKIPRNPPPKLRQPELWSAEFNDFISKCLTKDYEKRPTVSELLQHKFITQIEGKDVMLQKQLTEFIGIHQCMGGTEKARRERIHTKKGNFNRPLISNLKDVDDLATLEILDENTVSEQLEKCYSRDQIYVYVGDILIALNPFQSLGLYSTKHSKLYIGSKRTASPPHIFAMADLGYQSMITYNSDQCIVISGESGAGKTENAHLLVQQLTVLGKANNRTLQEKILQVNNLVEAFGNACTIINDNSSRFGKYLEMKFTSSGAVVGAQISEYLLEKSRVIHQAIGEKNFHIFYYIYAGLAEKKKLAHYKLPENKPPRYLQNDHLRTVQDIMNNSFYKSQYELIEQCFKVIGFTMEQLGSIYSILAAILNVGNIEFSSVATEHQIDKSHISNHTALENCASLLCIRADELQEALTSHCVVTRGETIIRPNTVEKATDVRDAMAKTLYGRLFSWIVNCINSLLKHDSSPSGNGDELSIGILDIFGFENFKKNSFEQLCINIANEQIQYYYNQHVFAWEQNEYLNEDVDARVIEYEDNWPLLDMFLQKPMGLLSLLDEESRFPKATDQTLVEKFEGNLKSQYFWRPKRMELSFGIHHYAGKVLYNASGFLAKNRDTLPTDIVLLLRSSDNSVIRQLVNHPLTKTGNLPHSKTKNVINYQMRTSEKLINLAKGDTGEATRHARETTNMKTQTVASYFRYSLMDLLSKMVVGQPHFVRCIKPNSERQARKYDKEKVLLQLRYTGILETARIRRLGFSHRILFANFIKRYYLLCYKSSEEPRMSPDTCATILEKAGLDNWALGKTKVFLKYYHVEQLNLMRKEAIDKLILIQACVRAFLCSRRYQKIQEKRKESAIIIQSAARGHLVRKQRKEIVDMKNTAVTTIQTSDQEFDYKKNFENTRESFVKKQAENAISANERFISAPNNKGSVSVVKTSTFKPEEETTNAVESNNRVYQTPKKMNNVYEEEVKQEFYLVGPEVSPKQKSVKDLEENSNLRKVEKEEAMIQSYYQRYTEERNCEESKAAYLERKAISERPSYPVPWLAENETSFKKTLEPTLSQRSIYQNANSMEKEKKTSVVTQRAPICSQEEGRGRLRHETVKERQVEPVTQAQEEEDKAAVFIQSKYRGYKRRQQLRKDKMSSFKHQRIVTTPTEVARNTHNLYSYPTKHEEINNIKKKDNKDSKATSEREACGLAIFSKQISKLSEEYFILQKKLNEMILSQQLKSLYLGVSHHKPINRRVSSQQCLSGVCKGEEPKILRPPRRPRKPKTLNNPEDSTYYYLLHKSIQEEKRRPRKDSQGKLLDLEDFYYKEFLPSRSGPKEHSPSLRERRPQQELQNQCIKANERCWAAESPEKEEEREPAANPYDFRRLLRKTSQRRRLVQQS
Procedure, shortened: as §1

NEK1 = target: T15, NEK1 (Homo sapiens, UniProt Q96PY6); conditions: for % binding compared to no inhibitor control: NEK1, 1 uM
T15 construct: purchased Ambit KINOMEscan (DiscoverX)
T15 sequence (Q96PY6 1-1258): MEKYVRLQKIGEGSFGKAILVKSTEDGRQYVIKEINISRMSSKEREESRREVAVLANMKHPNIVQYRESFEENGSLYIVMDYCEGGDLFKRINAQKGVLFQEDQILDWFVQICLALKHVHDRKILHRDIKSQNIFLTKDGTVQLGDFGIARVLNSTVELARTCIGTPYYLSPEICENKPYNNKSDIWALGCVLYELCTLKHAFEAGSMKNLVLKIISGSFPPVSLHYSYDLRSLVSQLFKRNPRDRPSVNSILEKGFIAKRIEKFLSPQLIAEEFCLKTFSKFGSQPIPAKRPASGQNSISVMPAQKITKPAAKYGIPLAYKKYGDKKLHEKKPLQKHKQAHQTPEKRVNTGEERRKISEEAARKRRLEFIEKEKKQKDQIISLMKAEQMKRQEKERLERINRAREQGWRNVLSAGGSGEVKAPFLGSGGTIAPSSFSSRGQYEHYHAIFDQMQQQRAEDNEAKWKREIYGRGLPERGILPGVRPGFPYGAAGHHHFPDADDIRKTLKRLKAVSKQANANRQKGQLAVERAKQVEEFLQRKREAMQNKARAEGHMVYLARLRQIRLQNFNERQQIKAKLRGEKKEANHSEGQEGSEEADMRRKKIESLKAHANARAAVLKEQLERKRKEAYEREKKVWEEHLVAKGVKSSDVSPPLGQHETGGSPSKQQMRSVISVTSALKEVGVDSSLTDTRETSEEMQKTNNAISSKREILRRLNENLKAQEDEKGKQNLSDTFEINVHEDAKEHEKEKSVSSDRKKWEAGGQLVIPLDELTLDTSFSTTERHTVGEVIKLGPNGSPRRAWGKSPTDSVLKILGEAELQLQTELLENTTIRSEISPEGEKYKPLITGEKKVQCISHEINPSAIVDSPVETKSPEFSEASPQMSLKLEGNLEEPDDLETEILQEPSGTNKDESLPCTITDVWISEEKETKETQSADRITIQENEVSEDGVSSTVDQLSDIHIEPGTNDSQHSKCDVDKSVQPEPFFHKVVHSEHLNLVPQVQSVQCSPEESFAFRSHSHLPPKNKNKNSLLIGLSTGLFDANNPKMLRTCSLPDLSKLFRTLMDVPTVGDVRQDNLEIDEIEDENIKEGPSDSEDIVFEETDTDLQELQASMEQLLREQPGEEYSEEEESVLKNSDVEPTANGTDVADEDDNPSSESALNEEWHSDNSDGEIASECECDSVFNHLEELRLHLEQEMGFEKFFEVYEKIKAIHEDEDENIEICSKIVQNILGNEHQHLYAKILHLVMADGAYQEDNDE
Procedure, shortened: as §1

NEK6 = target: T16, NEK6 (Homo sapiens, UniProt Q9HC98); conditions: NEK6, 1 uM
T16 construct: purchased Ambit KINOMEscan (DiscoverX)
Procedure, shortened: as §1

PHKG2 = target: T17, PHKG2 (Homo sapiens, UniProt P15735); conditions: PHKG2, 1 uM
T17 construct: purchased Ambit KINOMEscan (DiscoverX)
Procedure, shortened: as §1

PLK4 = target: T18, PLK4 (Homo sapiens, UniProt O00444); conditions: PLK4, 1 uM
T18 construct: purchased Ambit KINOMEscan (DiscoverX)
Procedure, shortened: as §1

RIOK2 = target: T19, RIOK2 (Homo sapiens, UniProt Q9BVS4); conditions: RIOK2, 1 uM
T19 construct: purchased Ambit KINOMEscan (DiscoverX)
Procedure, shortened: as §1

RIPK2 = target: T20, RIPK2 (Homo sapiens, UniProt O43353); conditions: RIPK2, 1 uM
T20 construct: purchased Ambit KINOMEscan (DiscoverX)
Procedure, shortened: as §1

SIK2 = target: T21, SIK2 (Homo sapiens, UniProt Q9H0K1); conditions: SIK2, 1 uM
T21 construct: purchased Ambit KINOMEscan (DiscoverX)
Procedure, shortened: as §1

SNARK = target: T22, SNARK (Homo sapiens, UniProt Q9H093); conditions: 1 uM
T22 construct: purchased Ambit KINOMEscan (DiscoverX)
T22 sequence (Q9H093 whole entry): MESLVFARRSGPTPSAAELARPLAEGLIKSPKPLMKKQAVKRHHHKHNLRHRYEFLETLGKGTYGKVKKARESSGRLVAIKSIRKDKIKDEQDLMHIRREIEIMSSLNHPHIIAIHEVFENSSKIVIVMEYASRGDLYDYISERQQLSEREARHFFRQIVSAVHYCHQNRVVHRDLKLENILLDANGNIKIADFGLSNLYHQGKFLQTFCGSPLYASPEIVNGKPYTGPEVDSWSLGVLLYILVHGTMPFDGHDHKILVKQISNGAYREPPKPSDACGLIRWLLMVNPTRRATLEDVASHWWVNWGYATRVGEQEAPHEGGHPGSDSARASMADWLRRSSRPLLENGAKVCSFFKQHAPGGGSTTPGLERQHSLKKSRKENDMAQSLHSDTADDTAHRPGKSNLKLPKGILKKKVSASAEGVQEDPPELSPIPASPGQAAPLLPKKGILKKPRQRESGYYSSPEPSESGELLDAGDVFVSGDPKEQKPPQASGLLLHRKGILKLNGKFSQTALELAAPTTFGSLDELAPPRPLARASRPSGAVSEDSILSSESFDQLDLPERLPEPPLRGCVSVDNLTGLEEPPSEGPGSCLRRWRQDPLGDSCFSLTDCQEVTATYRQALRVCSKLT
Procedure, shortened: as §1

STK33 = target: T23, STK33 (Homo sapiens, UniProt Q9BYT3); conditions: STK33, 1 uM
T23 construct: purchased Ambit KINOMEscan (DiscoverX)
Procedure, shortened: as §1

TIE2 = target: T24, TIE2 (Homo sapiens, UniProt Q02763); conditions: TIE2, 1 uM
T24 construct: purchased Ambit KINOMEscan (DiscoverX)
Procedure, shortened: as §1

Row | SMILES | % binding compared to no inhibitor control (AAK1) [%] | % binding compared to no inhibitor control (AURKC) [%] | % binding compared to no inhibitor control (BTK) [%] | % binding compared to no inhibitor control (CHEK2) [%] | % binding compared to no inhibitor control (CSNK1G2) [%] | % binding compared to no inhibitor control (CSNK2A2) [%] | % binding compared to no inhibitor control (EGFR(E746-A750del)) [%] | % binding compared to no inhibitor control (ERBB3) [%] | % binding compared to no inhibitor control (FGFR1) [%] | % binding compared to no inhibitor control (IKK-beta) [%] | % binding compared to no inhibitor control (INSR) [%] | % binding compared to no inhibitor control (JNK1) [%] | % binding compared to no inhibitor control (MAP3K3) [%] | % binding compared to no inhibitor control (MYO3A) [%] | % binding compared to no inhibitor control (NEK1) [%] | % binding compared to no inhibitor control (NEK6) [%] | % binding compared to no inhibitor control (PHKG2) [%] | % binding compared to no inhibitor control (PLK4) [%] | % binding compared to no inhibitor control (RIOK2) [%] | % binding compared to no inhibitor control (RIPK2) [%] | further results
1 | COc1ccc(-c2cc3nccn3c(Nc3ncccc3C(N)=O)n2)cc1OC.Cl.Cl [BAY61-3606, 2-[7-(3,4-dimethoxyphenyl)-imidazo [1,2-c]pyrimidin-5-ylamino] nicotinamide dihydrochloride, reference compound] | 1.6 | 92 | 50 | 100 | 100 | 54 | 49 | 100 | 93 | 37 | 60 | 18 | 97 | 80 | 27 | 63 | 26 | 35 | 4 | 70 | % inhibition ATP binding (NEK1; NEK1, KINOMEscan, 1 μM): 73%; % binding compared to no inhibitor control (SIK2): 100%; % binding compared to no inhibitor control (SNARK): 32%; % binding compared to no inhibitor control (STK33): 87%; % binding compared to no inhibitor control (TIE2): 100%
2 | COc1ccccc1Nc1nc(-c2ccc(OC)c(OC)c2)cc2nccn12 [BAY derivative 6] | 52 | 100 | 60 | 97 | 100 | 100 | 75 | 87 | 100 | 89 | 99 | 95 | 85 | 100 | 91 | 100 | 100 | 100 | 80 | 100 | % binding compared to no inhibitor control (SIK2): 64%; % binding compared to no inhibitor control (SNARK): 89%; % binding compared to no inhibitor control (STK33): 100%; % binding compared to no inhibitor control (TIE2): 100%
